Among the targets are Cytochrome P450 2D6 (Homo sapiens, UniProt P10635); Cytochrome P450 3A4 (Homo sapiens, UniProt P08684); Cytochrome P450 2C9 (Homo sapiens, UniProt P11712).
A further data set addresses Cytochrome P450 2C19 (Homo sapiens, UniProt P33261). Nature of the data set: Cytochrome panel assay with activity outcomes. Panel member name: p450-cyp2c19 Compounds with AC50 equal or less than 10 uM are considered active. It counts as functional. The settings on record: read-out: AC50.
Data set [1] is described as follows: Trypanosoma cruzi growth suppression in host cells – NIH3T3 host cells, beta-gal luminescence, confirmation (AID 2044).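 Further: intracellular parasites grown in NIH/3T3 mouse fibroblasts as host cells; luminescent beta-galactosidase reporter signal from transgenic T. cruzi replicating inside host cells; inhibitors lower the luminescence signal.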 It counts as functional, cell-based.
Data set [2] in a line: NIH3T3 cell viability loss – ATP luminescence, mouse fibroblasts, counter-screen, dose response (AID 2010).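 Further: cells exposed to compound for about 90 hours before reading.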 It counts as functional, cell-based.
A further data set concerns HEK293. Nature of the data set: EBV LMP1 TES2 canonical NF-kB signalling blockers – cell-based, HEK293, luciferase, cherry-pick, dose response (AID 588343). The class given is functional. As to conditions: Homo sapiens.
The nature of data set [3]: blockers of HIV-1 envelope-mediated cell-cell fusion – cherry-pick, dose response (AID 652057). It counts as functional, cell-based.
Data set [4] deals with T1, DNA repair protein RAD52 homolog (Homo sapiens, UniProt P43351).
T1 sequence (P43351 whole entry): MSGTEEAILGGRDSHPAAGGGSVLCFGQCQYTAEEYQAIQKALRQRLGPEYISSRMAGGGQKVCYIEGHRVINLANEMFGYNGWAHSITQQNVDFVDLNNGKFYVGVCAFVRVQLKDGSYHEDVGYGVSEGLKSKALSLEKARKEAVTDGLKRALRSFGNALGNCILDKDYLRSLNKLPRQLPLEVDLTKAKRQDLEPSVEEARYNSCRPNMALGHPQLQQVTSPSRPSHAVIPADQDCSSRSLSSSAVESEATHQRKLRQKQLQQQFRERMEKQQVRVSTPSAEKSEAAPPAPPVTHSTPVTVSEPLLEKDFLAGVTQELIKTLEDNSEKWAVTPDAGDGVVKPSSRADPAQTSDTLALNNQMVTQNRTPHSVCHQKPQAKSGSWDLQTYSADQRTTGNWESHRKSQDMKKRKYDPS
The class given is functional, biochemical.

The target of data set [5] is T2, Calpain-2 catalytic subunit (Sus scrofa, UniProt P43367).
T2 sequence (P43367 whole entry): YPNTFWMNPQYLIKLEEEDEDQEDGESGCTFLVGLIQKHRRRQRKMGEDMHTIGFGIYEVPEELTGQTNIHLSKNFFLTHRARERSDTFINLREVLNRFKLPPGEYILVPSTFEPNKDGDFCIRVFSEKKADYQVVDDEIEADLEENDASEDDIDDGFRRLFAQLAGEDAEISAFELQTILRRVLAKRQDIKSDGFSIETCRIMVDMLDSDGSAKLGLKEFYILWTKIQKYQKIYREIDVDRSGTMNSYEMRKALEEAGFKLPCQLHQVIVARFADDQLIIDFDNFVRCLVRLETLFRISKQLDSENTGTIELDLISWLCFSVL
Nature of the data set: m-calpain protease blockers, concentration series – biochemical, fluorogenic peptide substrate, dose response (AID 1420). The class given is functional.

Data set [6] addresses Heat shock protein HSP 90-alpha (Homo sapiens, UniProt P07900). The class given is functional, organism-based.
The subject of another data set is H9c2. Nature of the data set: cells. The class given is functional, cell-based. As to conditions: Rattus norvegicus, H9c2, Myocardium.
A short description of data set [7]: HIV-1 Vif–A3G interaction blockers – biochemical, TR-FRET, GST-Vif 1-94, biotin-A3G peptide, dose response retest, primary screen (AID 1117319).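 Further: TR-FRET signal of purified GST-Vif binding a biotinylated A3G peptide; inhibitors lower the FRET signal by blocking Vif and A3G binding.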 The class given is functional. In general terms: Time-resolved FRET reads energy transfer from a long-lived donor to a nearby acceptor.
The nature of data set [8]: HIV-1 AD8 envelope cell-cell fusion blockers – cherry-pick, dose response (AID 652062).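 Further: luciferase signal from cell-cell fusion driven by HIV-1 clade B AD8 Env; potency is for inhibitors of fusion seen as a drop in luminescence.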 It counts as functional, cell-based.
The target in data set [9] is T3, Heat shock factor protein 1 (Mus musculus, UniProt P38532).
T3 sequence (P38532 whole entry): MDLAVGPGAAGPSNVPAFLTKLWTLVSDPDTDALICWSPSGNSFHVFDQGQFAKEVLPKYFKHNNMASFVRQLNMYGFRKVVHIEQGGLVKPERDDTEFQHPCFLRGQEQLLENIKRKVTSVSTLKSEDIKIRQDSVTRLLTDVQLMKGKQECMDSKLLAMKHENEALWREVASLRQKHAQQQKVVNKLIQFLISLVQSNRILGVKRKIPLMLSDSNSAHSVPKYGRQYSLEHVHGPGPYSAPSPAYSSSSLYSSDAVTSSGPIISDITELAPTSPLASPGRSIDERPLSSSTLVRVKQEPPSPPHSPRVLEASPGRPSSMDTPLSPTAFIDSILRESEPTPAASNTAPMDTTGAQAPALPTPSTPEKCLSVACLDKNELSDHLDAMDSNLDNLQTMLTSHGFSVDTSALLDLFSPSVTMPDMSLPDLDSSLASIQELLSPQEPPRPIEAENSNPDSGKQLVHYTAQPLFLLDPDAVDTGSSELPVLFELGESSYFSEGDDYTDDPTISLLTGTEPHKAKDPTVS
Nature of the data set: enhancement of HSF1-driven luciferase signal – cell-based, NIH3T3, luminescence, dose retest, confirmation (AID 435004).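 Further: stress induced by proteasome inhibitor MG132 added 30 min after compound; luciferase reporter driven by HSF1 response element in NIH3T3 cells; actives raise luminescence as potentiators of the MG132 stress response.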 It counts as functional.

A further data set deals with Paired box protein Pax-8 (Homo sapiens, UniProt Q06710). The experiment in a line: PAX8 transcriptional activity inhibition in RMG-I – RMG-I cells, luciferase, cherry-pick, dose response (AID 687027).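 Further: luciferase reporter driven by Pax8 target thyroperoxidase promoter measured by SteadyGlo luminescence.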 It counts as functional, cell-based.
Sequence of Paired box protein Pax-8 (Q06710 whole entry): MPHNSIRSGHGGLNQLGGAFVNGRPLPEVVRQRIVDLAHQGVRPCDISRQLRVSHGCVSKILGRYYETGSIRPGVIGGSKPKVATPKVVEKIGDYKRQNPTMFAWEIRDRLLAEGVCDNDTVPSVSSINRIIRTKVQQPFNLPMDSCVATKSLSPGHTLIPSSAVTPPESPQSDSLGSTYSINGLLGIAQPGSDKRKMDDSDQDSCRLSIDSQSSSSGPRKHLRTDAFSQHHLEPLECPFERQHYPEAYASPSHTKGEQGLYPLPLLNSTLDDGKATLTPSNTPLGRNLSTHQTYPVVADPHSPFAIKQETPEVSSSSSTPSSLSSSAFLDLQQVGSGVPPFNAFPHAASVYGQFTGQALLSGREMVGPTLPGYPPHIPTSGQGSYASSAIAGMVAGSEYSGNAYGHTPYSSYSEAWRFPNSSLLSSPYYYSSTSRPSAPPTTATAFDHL
For data set [10], the target named is T4, Fatty acid synthase (Homo sapiens, UniProt P49327). Nature of the data set: inhibition of human FAS-TE enzyme activity – biochemical, endpoint fluorescence intensity, uHTS hits, dose response (AID 624327).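 Further: fluorescence from hydrolysis of an O-methyl fluorescein acyl ester substrate by the enzyme.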 The class given is functional.
T4 sequence (P49327 whole entry): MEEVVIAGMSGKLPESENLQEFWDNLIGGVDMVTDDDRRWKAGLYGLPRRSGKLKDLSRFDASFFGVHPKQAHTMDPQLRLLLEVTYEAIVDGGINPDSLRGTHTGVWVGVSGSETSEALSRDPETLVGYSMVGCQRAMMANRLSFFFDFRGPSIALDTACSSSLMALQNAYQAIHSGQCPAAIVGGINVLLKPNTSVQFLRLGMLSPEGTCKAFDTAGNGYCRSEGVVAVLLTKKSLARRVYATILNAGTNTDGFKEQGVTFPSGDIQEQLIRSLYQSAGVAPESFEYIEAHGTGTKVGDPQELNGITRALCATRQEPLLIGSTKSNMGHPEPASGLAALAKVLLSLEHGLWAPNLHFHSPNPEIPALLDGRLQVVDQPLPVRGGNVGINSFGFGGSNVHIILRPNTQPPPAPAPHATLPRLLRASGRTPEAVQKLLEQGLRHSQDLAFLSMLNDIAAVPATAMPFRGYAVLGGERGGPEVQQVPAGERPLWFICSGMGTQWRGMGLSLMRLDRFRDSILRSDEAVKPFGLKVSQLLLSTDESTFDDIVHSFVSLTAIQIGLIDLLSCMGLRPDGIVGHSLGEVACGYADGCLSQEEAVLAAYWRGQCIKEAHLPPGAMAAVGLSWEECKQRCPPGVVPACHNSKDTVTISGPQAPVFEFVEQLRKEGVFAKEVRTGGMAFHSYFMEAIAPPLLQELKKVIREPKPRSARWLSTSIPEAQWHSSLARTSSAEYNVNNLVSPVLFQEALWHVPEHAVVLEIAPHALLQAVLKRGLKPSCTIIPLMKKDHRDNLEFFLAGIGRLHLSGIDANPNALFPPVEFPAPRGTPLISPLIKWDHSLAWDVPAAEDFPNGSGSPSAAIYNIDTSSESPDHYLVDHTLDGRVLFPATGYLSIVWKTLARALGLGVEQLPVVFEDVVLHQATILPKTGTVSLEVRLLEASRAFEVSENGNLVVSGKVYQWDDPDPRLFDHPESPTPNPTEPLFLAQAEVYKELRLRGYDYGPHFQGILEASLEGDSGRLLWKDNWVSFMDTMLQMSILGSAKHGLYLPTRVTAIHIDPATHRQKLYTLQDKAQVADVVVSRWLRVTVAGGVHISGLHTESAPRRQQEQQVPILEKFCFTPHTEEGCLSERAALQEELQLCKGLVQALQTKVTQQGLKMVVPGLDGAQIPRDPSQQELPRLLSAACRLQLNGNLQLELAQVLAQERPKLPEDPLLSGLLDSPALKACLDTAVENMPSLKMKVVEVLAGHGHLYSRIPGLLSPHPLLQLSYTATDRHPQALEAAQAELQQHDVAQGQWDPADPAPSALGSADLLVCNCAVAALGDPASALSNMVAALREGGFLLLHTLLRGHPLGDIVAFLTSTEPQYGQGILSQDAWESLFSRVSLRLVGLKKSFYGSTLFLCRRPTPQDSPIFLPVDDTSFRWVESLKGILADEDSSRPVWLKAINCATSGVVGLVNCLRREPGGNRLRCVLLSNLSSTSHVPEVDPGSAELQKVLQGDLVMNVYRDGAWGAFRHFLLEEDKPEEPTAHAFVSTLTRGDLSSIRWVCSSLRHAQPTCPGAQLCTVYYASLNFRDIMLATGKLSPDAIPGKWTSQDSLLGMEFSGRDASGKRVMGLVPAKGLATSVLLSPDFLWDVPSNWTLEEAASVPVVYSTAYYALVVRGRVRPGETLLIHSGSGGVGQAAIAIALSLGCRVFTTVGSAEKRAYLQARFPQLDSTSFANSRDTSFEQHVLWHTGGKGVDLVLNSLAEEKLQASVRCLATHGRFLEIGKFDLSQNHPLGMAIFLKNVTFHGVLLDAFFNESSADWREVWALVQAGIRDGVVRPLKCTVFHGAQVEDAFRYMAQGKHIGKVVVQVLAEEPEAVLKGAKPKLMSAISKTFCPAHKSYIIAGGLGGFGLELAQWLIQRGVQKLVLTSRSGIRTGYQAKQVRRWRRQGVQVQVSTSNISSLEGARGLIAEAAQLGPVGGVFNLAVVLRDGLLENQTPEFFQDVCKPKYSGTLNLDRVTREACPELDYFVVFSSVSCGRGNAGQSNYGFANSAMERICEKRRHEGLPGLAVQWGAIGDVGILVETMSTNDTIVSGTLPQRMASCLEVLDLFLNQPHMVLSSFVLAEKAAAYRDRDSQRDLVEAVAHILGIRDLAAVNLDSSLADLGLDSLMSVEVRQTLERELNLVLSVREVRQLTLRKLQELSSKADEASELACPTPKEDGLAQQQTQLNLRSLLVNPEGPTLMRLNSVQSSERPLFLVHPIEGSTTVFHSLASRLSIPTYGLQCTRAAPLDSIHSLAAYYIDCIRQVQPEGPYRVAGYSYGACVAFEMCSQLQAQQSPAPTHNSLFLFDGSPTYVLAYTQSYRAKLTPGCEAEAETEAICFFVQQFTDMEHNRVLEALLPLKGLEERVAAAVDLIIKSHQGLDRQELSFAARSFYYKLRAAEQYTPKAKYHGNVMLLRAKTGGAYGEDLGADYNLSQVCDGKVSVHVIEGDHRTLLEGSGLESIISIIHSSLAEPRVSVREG
Data set [11] has as its target T4, Fatty acid synthase. The experiment in a line: inhibition of human FAS-TE enzyme activity – biochemical, kinetic fluorescence intensity, dose response (AID 624326).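 Further: rate of fluorescence rise from hydrolysis of a fluorogenic O-methyl fluorescein ester substrate.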 The class given is functional.
For another data set, the system named is SN12K1. Nature of the data set: cells. It counts as functional. The settings on record: Homo sapiens.
Data set [12] is described as follows: Luminescence Cell-Based Dose Response HTS to Identify Activators of Luciferase Translation or Activity in H4 […] Cells. [Related pubchem assays: 1829 (Project Summary), 1814 (Primary HTS)]. It counts as functional.
In data set [13] the target is T5, Replicative DNA helicase DnaB (Mycobacterium tuberculosis, UniProt P9WMR3).
T5 sequence (P9WMR3 whole entry): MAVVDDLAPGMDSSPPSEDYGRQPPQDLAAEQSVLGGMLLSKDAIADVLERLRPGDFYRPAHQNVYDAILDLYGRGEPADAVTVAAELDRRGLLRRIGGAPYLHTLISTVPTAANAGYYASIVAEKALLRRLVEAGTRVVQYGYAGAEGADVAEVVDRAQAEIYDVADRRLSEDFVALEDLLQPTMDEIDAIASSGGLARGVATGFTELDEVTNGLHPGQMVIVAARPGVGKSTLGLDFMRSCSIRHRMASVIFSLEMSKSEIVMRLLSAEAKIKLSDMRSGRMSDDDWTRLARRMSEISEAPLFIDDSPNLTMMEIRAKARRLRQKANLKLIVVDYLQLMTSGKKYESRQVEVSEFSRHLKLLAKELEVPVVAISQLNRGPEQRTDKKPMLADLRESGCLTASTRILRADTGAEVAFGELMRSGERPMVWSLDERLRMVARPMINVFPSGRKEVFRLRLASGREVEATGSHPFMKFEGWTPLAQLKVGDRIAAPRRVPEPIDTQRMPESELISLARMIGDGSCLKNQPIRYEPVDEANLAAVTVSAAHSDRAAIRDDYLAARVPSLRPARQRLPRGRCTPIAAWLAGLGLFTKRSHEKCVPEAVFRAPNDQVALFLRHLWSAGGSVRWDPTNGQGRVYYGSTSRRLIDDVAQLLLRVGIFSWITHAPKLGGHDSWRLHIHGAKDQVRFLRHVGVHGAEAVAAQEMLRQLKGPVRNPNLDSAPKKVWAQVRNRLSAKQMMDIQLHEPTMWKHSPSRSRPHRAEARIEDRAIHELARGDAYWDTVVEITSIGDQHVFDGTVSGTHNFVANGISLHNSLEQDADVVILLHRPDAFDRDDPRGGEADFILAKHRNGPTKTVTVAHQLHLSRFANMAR
The experiment in a line: DnaB intein splicing inhibitors, dose response, biochemical, cell-free fluorescence (AID 449749). The class given is functional.

The next data set addresses T6, Protein RecA (Mycobacterium tuberculosis, UniProt P9WHJ3).
T6 sequence (P9WHJ3 whole entry): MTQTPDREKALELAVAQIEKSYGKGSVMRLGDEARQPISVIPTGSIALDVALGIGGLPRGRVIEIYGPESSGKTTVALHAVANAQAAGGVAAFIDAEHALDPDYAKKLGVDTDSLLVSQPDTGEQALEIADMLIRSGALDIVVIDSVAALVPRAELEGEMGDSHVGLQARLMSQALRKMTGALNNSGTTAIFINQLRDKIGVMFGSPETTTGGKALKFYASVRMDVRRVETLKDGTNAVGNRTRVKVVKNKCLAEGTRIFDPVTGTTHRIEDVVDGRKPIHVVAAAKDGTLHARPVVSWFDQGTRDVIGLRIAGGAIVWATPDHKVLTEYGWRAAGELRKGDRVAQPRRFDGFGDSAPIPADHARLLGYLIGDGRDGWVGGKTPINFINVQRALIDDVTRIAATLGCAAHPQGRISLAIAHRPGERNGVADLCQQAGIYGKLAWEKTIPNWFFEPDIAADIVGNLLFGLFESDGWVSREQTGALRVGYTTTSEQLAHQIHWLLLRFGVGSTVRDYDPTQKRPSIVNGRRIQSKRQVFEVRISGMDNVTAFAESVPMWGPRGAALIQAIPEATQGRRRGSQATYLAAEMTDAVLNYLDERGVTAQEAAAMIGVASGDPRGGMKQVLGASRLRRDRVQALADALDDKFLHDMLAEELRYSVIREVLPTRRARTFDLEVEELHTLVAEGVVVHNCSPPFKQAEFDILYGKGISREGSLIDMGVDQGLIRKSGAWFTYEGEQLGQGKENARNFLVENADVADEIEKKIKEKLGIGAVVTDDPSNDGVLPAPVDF
Nature of the data set: Fluorescence Cell-Free Homogeneous Dose Retest to Identify Inhibitors of RecA-Intein Splicing Activity. [Related pubchem assays (depositor defined):AID2097, AID2223, AID489010, AID492950]. The class given is functional.

One may read the AC50 as the midpoint of the concentration-response curve, whichever way the signal moves. By EC50 is commonly meant the midpoint of the concentration-response curve. Broadly, the IC50 is the concentration at which inhibition is half-maximal. As a reminder, the GI50 is the concentration giving 50% growth inhibition.

Activity calls are given as the source filed them.

Sequence of Cytochrome P450 2C9 (P11712 whole entry): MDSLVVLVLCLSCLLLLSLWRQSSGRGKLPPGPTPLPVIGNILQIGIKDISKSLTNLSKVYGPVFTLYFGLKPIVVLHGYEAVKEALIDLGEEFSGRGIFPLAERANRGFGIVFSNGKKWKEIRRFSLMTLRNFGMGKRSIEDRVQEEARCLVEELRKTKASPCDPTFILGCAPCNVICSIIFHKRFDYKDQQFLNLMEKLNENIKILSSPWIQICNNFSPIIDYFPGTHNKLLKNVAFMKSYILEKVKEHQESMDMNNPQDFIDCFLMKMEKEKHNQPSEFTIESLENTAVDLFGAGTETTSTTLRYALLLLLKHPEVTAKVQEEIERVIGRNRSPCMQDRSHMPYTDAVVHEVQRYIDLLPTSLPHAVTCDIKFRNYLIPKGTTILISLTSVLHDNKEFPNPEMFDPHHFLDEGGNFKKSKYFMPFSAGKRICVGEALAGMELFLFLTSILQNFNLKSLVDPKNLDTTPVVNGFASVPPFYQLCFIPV
Sequence of Cytochrome P450 2D6 (P10635 whole entry): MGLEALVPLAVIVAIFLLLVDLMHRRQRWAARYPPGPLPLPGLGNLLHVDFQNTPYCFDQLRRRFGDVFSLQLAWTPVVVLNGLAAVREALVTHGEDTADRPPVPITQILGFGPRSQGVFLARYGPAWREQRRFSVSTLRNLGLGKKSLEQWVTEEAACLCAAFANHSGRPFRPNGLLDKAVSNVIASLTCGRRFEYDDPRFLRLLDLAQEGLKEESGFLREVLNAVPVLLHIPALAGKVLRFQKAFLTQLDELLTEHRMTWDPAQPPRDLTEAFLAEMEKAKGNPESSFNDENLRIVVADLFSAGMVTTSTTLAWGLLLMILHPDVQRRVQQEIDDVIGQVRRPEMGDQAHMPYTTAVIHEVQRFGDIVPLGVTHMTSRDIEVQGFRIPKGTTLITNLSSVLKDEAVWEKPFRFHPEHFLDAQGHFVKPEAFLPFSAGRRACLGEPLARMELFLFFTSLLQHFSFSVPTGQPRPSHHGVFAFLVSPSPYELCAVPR
Sequence of Cytochrome P450 3A4 (P08684 whole entry): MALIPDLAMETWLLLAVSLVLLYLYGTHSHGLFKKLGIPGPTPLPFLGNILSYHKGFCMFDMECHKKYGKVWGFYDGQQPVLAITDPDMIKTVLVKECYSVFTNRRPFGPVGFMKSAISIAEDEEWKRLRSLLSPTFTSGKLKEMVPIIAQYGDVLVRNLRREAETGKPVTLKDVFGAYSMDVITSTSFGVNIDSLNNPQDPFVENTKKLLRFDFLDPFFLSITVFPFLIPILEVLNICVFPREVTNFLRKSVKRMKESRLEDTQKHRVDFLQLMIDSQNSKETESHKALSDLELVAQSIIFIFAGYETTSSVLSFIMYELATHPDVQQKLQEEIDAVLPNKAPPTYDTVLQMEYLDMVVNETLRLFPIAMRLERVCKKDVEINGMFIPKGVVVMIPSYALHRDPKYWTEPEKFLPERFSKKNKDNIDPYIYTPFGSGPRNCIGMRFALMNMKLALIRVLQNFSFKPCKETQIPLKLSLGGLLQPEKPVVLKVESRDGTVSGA
Sequence of Cytochrome P450 2C19 (P33261 whole entry): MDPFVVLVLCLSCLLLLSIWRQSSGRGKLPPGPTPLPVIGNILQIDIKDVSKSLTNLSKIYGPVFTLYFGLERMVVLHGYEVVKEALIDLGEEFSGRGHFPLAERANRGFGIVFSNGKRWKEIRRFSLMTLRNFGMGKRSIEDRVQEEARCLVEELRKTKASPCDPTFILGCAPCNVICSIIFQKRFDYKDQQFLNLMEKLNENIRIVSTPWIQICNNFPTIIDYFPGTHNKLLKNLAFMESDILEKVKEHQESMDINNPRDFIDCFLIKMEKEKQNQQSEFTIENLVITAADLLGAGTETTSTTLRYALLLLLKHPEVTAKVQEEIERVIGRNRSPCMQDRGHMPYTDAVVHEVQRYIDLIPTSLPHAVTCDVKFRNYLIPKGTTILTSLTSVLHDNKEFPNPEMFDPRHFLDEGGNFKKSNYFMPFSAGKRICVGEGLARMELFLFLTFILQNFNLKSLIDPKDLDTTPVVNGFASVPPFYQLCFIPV

As for `O=C(NCCCN1CCOCC1)C1COc2ccccc2O1` (stereo not drawn), the AC50 at Cytochrome P450 2C19 is 17.8 µM (inconclusive); on Cytochrome P450 2D6 it was 7.94 µM (inconclusive); at Cytochrome P450 3A4 it was 14.1 µM (inconclusive); at Cytochrome P450 2C9, “inconclusive”.
For the compound `O=C(Nc1ccc(Cl)c(Cl)c1)Nc1nc(-c2ccccc2)cs1`, the EC50 is 1.52 µM (active) in data set [1] and > 60 µM (not active) in data set [2]. In the data set on HEK293, the half-maximal activity concentration (AC50) is 24.9 µM (active).
Take `CCCCNC(=O)C[C@H]1C[C@@]2(C(=O)OC)C(=C[C@H](C(C)(C)C)O[C@@H]2C)N(Cc2ccc3c(c2)OCO3)C1=O`: the half-maximal activity concentration (AC50) in [3] was 19.8 µM (active).
As to `CCN1CCN(Cc2ccc(NC(=O)c3ccc(C)c(NC(=O)c4csc(-c5ccncc5)n4)c3)cc2C(F)(F)F)CC1`, in data set [4], the AC50 is 33.6 µM (active).
As for `Cc1ccc(C(=O)N2CCN(c3ccccc3Cl)CC2)cc1[N+](=O)[O-]`, the IC50 in data set [5] is given as > 50 µM (not active). For the same compound, the AC50 in [6] was 4.18 µM (active).
On to `Nc1nc(-c2ccccc2)c(-c2ccccc2)s1`, for which the AC50 at Cytochrome P450 2D6 is 15.8 µM (inconclusive); at Cytochrome P450 2C9, “inconclusive”.
`Cc1ccc2nsnc2c1S(=O)(=O)N(Cc1ccco1)Cc1cc2cccc(C)c2nc1O`: the IC50 was > 79 µM (inactive) with H9c2 and > 100 µM (active) in data set [7].
With `O=C(COc1ccc(-n2cnnn2)cc1)Nc1ccc(F)c(F)c1`, the AC50 in data set [8] is 1.42 µM (active).
In the case of `Cc1cc(Sc2nnc(N)s2)c2ccccc2n1`, the EC50 in [9] was 14.6 µM (active). The AC50 in the data set on HEK293 is 3.03 µM (active); on Paired box protein Pax-8 it was 4.58 µM (active).
As for `O=C(c1cccc(C(F)(F)F)c1)N1CCC(O)(CS(=O)(=O)Cc2ccccc2)CC1`, the AC50 at Cytochrome P450 3A4 was 3.16 µM (inconclusive); at Cytochrome P450 2C9, “inconclusive”.
As to `CC(OC(=O)c1ccc([N+](=O)[O-])o1)C(=O)NC1CCCCC1C` (stereo not drawn), in data set [7], the IC50 is > 100 µM (active).
With `O=[N+]([O-])c1ccc(N2CCN(Cc3cccc([N+](=O)[O-])c3)CC2)cc1`, the concentration at half-maximal activity (AC50) with HEK293 was 52.6 µM (active).
With `CN(C)CCCNC(=O)C[C@H]1C[C@H](C(=O)N2CCOCC2)[C@@]2(CCC3CCCC3)c3[nH]c4cc(-c5ccco5)ccc4c3CCN2C1=O`, the 50% inhibitory concentration (IC50) at Fatty acid synthase [10] was 5.74 µM (active); on Fatty acid synthase [11], 5.89 µM (active). Also, in [4], the half-maximal activity concentration (AC50) is 11.2 µM (active).
For `C[C@]12CC[C@@H]3c4ccc(OC(=O)N(CCCl)CCCl)cc4CC[C@H]3[C@@H]1CC[C@@H]2O` [ESTRAMUSTINE], the GI50 with SN12K1 was 0.025 µM (active).
Consider `CCC1CCC2(CC1)NC(=O)N(CC(=O)Nc1ccc(OC)c(Cl)c1)C2=O` (stereo not drawn), for which the IC50 in [7] was > 100 µM (active).
As for `CCOC(=O)c1c(C)[nH]c(C)c1C(=O)COC(=O)c1cccc(S(=O)(=O)NC)c1`, in data set [7], the IC50 was > 100 µM (active).
With `COc1ccc(Nc2cnn(-c3nc4ccccc4s3)c(=O)c2Cl)cc1`, the EC50 in [12] was 0.198 µM (active); at Protein RecA it was 4.01 µM (active). Besides, the values for the AC50 in data set [13] and in data set [6] were > 380 µM (inactive) and 3.21 µM (active), respectively.

For the origin of these results see ChEMBL document CHEMBL1201862, “PubChem BioAssay data set” (2004).
